Data reported in ChEMBL document CHEMBL2029286, “Trisubstituted imidazoles as Mycobacterium tuberculosis glutamine synthetase inhibitors” (J Med Chem, 2012).
Values after ≈ are worked out from the molar mass of the structure shown.

How the values were obtained:
[1] = Inhibition of Mycobacterium tuberculosis H37Rv glutamine synthetase expressed in Escherichia coli GJ4745 after 1 hr
[2] = system: Mycobacterium tuberculosis; test: Antitubercular activity against Mycobacterium tuberculosis H37Rv ATCC 27294 after 5 days by resazurin microtitre assay; type: functional; settings: H37Rv ATCC 27294, 120 h
[3] = Selectivity ratio of IC50 for human A549 cells to MIC for Mycobacterium tuberculosis H37Rv ATCC 27294; type: functional
A549 = test: Cytotoxicity against human A549 cells after 72 hrs by resazurin reduction assay; type: cell-based; settings: A549, 72 h

Row | Compound | IC50 [1] [µM] | MIC [2] [µg/mL] | further results
1 | COc1ccc2cc(-c3nc(-c4cccc(O)c4)[nH]c3-c3ccncc3)ccc2c1 | > 25 | – | –
2 | COc1ccc2cc(-c3nc(C(C)(C)C)[nH]c3-c3ccnc(F)c3)ccc2c1 | 1.2 | 64 (≈ 170 µM) | –
3 | COc1ccc2cc(-c3nc(C(C)(C)C)[nH]c3-c3cncnc3)ccc2c1 | > 25 | – | –
4 | COc1ccc2cc(-c3nc(-c4ccc[nH]4)[nH]c3-c3ccncc3)ccc2c1 | > 25 | – | –
5 | COc1ccc2cc(-c3nc(C(C)(C)C)[nH]c3-c3ccccc3)ccc2c1 | > 25 | – | –
6 | COc1ccc2cc(-c3nc(COCc4ccccc4)[nH]c3-c3ccncc3)ccc2c1 | > 25 | – | –
7 | COc1ccc2cc(-c3nc(C(C)(C)c4ccccc4)[nH]c3-c3ccncc3)ccc2c1 | > 25 | – | –
8 | CC(C)(C)c1nc(-c2cnc3ccccc3c2)c(-c2ccncc2)[nH]1 | – | > 32 | –
9 | COc1ccc2cc(-c3nc(-c4ccccc4)[nH]c3-c3ccncc3)ccc2c1 | > 25 | – | –
10 | COc1ccc2cc(-c3nc(CO)[nH]c3-c3ccncc3)ccc2c1 | > 25 | – | –
11 | COc1ccc2cc(-c3nc[nH]c3-c3ccncc3)ccc2c1 | > 25 | – | –
12 | COc1ccc2cc(-c3nc(C(C)(C)C)[nH]c3-c3ccnc(N)c3)ccc2c1 | – | 2 (≈ 5.37 µM) | Ratio IC50 [3]: 5; IC50 (A549): 24.7 µM
13 | CCc1nc(-c2ccc3cc(OC)ccc3c2)c(-c2ccncc2)[nH]1 | 2.2 | > 32 | –
14 | COc1ccc2cc(-c3nc(C(C)(C)C)[nH]c3-c3ccncc3)ccc2c1 | 3.1 | > 32 | –
15 | COc1ccc2cc(-c3nc(C(C)(C)C)[nH]c3-c3ccnc(N(C)C)c3)ccc2c1 | > 25 | – | –
16 | COc1ccc2cc(-c3nc(C)[nH]c3-c3ccncc3)ccc2c1 | > 25 | – | –
17 | CNc1cc(-c2[nH]c(C(C)(C)C)nc2-c2ccc3cc(OC)ccc3c2)ccn1 | 5.2 | 8 (≈ 20.7 µM) | –
18 | COc1ccc2cc(-c3nc(C(C)(C)C)[nH]c3-c3ncccn3)ccc2c1 | > 25 | – | –
